{"source": "patent US20050222235A1", "about": "“Drugs for improving the prognosis of brain injury and a method of screening the same” (priority 2002, published 2005)", "assay_type_in_all_cases": "in vivo, mouse", "key": {"Stab wound model mice [1]": {"test_system": "Stab wound model mice", "test": "Stab wound model of traumatic brain injury: recovery / progress of brain injury (histology)"}, "Stab wound model mice [2]": {"test_system": "Stab wound model mice", "test": "Stab wound model: Evans Blue dye leakage to the injured site", "conditions": "for leakage of the dye to the injured site: Stab wound model mice, Evans Blue after 2 days", "protocol": "Degree of injury was quantified by a dye leakage (Evans Blue) to the injured site (Kakimura Y, et al., Nature Medicine, 4:1078-1080, 1998). After 2 days from injury, the maximum value was noted and, after that, it lowered as a result of recovery (refer to FIG. 20).\nAn effect of BW A868C or ramatroban ((±)-(3R)-3-(4-fluorobenzenesulfonamide)-1,2,3,4-tetrahydrocarbazol-9-propionic acid) which is an antagonist for prostaglandin D receptor to Stab wound model mice was evaluated using leakage amount of dye to the injured site as an index. Thus, Evans Blue dye was intravenously administered after 2 days from occurrence of brain injury and the amount of leakage of the dye to the tissue during 2 hours thereafter was measured. When BW A868C (1 mg/kg) was intravenously administered after 3 hours and after one day from occurrence of the brain injury, leakage of the dye to the injured site was suppressed (refer to FIG. 27).\nAn effect of pinagladin which is a DP receptor antagonist to a Stab wound model was evaluated by a leakage amount of dye to the injured site. Thus, Evans Blue was intravenously injected on the second day after occurrence of brain injury and leakage amount of the dye into the tissue during 2 hours thereafter was measured. As a result, when pinagladin (10 mg/kg) was orally administered before 1 hour and after one day of the occurrence of the injury, an increase in leakage amount of Evans Blue dye noted as a result of brain injury was suppressed (refer to FIG. 24)."}, "Twitcher mice": {"test_system": "Twitcher mice", "test": "Twitcher mice (hereditary demyelinating disease): astroglia activation and DP receptor expression", "conditions": "subcutaneous 30 mg/kg/day for 14 days", "excerpt": "Changes in mRNA of H-PGDS and DP receptor as a result of demyelination were quantified by a quantitative RT-PCR method using a model mouse Twitcher of human Krabbe diseases which is a disease where galactosylceramidase is deficient (Kobayashi T, et al., Brain Res., 202:479-483, 1980; Duchen L W, et al., Brain, 103:695-710, 1980; Sakai N, et al., J. Neurochem., 66:1118-1124, 1996; Taniike M et al., J. Neuropathol. Exp. Neurol., 58:644-653, 1999) (refer to FIG. 1). Expression of mRNA of both H-PGDS and DP receptor increased as a result of demyelination.\nHQL-79 (4-benzhydryloxy-1-{3-(1H-tetrazol-5-yl)-propyl}piperidine) which is an H-PGDS inhibitor was subcutaneously administered to Twitcher mice at the dose of 30 mg/kg/day for 14 days whereupon activation of astroglia cells was suppressed and, at the same time, expression of DP receptor in astroglia cells lowered (refer to FIG. 13)."}, "DP receptor": {"test_system": "DP receptor", "test": "Stab wound model: DP receptor mRNA in tissue injury region", "conditions": "oral 30 mg/kg/day for 4 days from one hour before injuring"}, "[3]": {"conditions": "traumatic brain injury, administration started after 24 hours from injury"}}, "data": [{"molecule": "CC1(C)[C@H]2C[C@H](C/C=C\\CCCC(=O)O)[C@@H](NC(=O)c3csc4ccccc34)[C@@H]1C2", "note": "[pinagladin, (Z)-7-[(1R,2R,3S,5S)-2-(benzo[b]-thiophene-3-ylcarbonylamino)-10-norpinan-3-yl]hepta-5-enoic acid]", "values": [{"measurement": "progress of brain injury (histopathological investigation)", "setting": "Stab wound model mice [1]; Stab wound model, in any of administration routes", "value": "suppressed the progress of brain injury"}, {"measurement": "increase in leakage amount of Evans Blue dye as a result of brain injury", "setting": "Stab wound model mice [2]; Stab wound model, 10 mg/kg oral before 1 hour and after one day of injury, Evans Blue on second day, leakage during 2 hours", "value": "suppressed"}]}, {"molecule": "O=C(O)CCn1c2c(c3ccccc31)C[C@H](NS(=O)(=O)c1ccc(F)cc1)CC2", "note": "[ramatroban, (+)-(3R)-3-(4-fluorobenzenesulfonamide)-1,2,3,4-tetrahydrocarbazol-9-propionic acid]", "values": [{"measurement": "leakage of the dye to the injured site", "setting": "Stab wound model mice [2]; 30 mg/kg oral after 3 hours and after one day from injury, leakage during 2 hours", "value": "suppressed"}]}, {"molecule": "c1ccc(C(OC2CCN(CCCc3nnn[nH]3)CC2)c2ccccc2)cc1", "note": "[HQL-79, 4-benzhydryloxy-1-{3-(1H-tetrazol-5-yl)-propyl}piperidine]", "values": [{"measurement": "activation of astroglia cells", "setting": "Twitcher mice", "value": "suppressed"}, {"measurement": "expression of DP receptor in astroglia cells", "setting": "Twitcher mice", "value": "lowered"}, {"measurement": "recovery of brain injury", "setting": "Stab wound model mice [1]; Stab wound model, oral 30 mg/kg/day for 4 days from one hour before injuring", "value": "promotion of recovery"}, {"measurement": "tissue injury (expansion of injury)", "setting": "Stab wound model mice [1]; [3]", "value": "inhibitory effect"}, {"measurement": "amount of mRNA of DP receptor in tissue injury region", "setting": "DP receptor", "value": "lowered"}, {"measurement": "leakage reaction of dye to the injured site", "setting": "Stab wound model mice [2]; Stab wound model, oral 30 mg/kg/day, administration started one hour before injury", "value": "therapeutic effect was also confirmed"}, {"measurement": "tissue injury (leakage of dye)", "setting": "Stab wound model mice [2]; [3]", "value": "inhibitory effect"}]}, {"molecule": "O=C(O)CCCCCCC1C(=O)N(Cc2ccccc2)C(=O)N1NCC(O)C1CCCCC1", "note": "(racemic) [BW A868C, (±)-3-benzyl-5-(6-carboxyhexyl)-1-(2-cyclohexyl-2-hydroxyethylamino)-hydantoin]", "values": [{"measurement": "recovery of brain injury", "setting": "Stab wound model mice [1]; Stab wound model mice, intravenous 1 mg/kg/day for 4 days from the initial day of injury", "value": "promotion of recovery"}, {"measurement": "leakage of the dye to the injured site", "setting": "Stab wound model mice [2]; 1 mg/kg intravenous after 3 hours and after one day from injury, leakage during 2 hours", "value": "suppressed"}]}]}
